Measured values from patent US12516179B2, “Chitosan-based nanocomposite as an antimicrobial agent and corrosion inhibitor” (priority 2019, dated 2026).

What was measured:
zebrafish embryos [1] = experiment: Zebrafish embryo acute toxicity assay (CNLS-NCs); format: in vivo, zebrafish (AB strain); details: exposure 24-72 hpf
Protocol: We used wild type zebrafish embryos (AB strain) in our study. For detailed information about our zebrafish aquatic system (Aquaneering, USA), original source of the zebrafish, zebrafish culture, mating protocol, and animal protocol guidelines, the reader is advised to visit the following articles. For the acute toxicity assay, at 24-hours post fertilization (hpf), embryos were dechorionated as described in. Briefly, E3 media were removed and 0.5 mg/mL of pronase enzyme (Sigma, Germany) in 10 mL PTU-E3 media was added and incubated for 10 min at 28° C. until the chorion become soft. Then, embryos were washed 2-3 times with PTU-E3 medium until the embryos were released and free from the chorion. […] The mortality rate and teratogenicity (morphological deformities) were observed and recorded at 2-time point intervals (48 and 72-hpf) using a standard stereo microscope (Zeiss, Germany). The teratogenic effects of both nanoparticles were determined based on the normal embryo morphology of the negative control (FIG. 9A), and abnormal morphology [defects in body size, heart and yolk edema, scoliosis, pigmentation, and movement problem (FIG. 9B)] of the positive control. Teratogenicity was scored at 72-hpf by calculating the number of dead and deformed embryos over the total number of […] embryos used in each concentration (50 embryos). […]

zebrafish embryos [2] = experiment: Zebrafish embryo acute toxicity assay (CZNCs); format: in vivo, zebrafish (Danio rerio), AB strain
Protocol: Fertilized embryos of wild type AB zebrafish strains (Danio rerio) were collected in E3 egg medium in Petri dishes. At 3 hours post-fertilization (hpf), unfertilized and abnormal embryos were discarded. The fertilized embryos were dechorionated with pronase at 24-hpf and retained in 6 well-plates containing E3 egg medium. Next, E3 egg medium was replaced by the different concentrations of drugs to be tested.
We investigated the toxicology of CZNCs nanomaterial with an acute toxicity assay adapted by the Organization of Economic Co-operation and Development (OECD) guideline for testing chemical toxicity (No 203 and 236) and modified it for nanoparticle testing. The purified (acetic acid-free) lyophilized CZNCs nanomaterial was weighted and dissolved in DI water, then sonicated in a water bath for 15 min for several cycles until a complete homogeneous solution is achieved. Next, 24-hpf healthy dechorionated embryos were transferred to 6 well-plate containing the following treatment dissolved in E3 egg medium: (i) four different concentrations (25, 50, 100, 250 μg/mL) of CZNCs (ii) the positive control DEAB ([…]), (iii) the negative control 0.1% DMSO and then incubated at 28.5° C. for an additional 72 h until their age reached 96-hpf. Cumulative survival and mortality were recorded at 3-time point intervals (48, 72, and 96 hpf), In addition, all embryos were observed every day for any teratogenic abnormalities. […] A total of 100 embryos were used for each tested dose condition of the CZNCs, and 20 embryos for DEAB and DMSO concentrations. The toxicity assessment was expressed as a percentage of survived embryos for 96-hpf. Teratogenic score was presented as average standard error of mean. This value was calculated at every stage as the sum of different teratogenic phenotypes, expressed in percentage respect to the total number of possible teratogenic phenotypes at that precise stage of observation.

[3] = system: SRB induced corrosion on carbon steel (SS400); experiment: EIS of carbon steel (SS400) coupons incubated in SRB media with CLNC / CS@LS; details: SRB with 5% GA
Protocol: The carbon steel coupons were incubated in liquid medium containing enriched SRB biomass (250 mg·VSS/L) along with modified Postage's C medium in simulated inject seawater. […] 200 ml plastic bottles were used for the incubation experiments. The coupons were incubated without CLNC to evaluate the SRB induced corrosion on carbon steel. In next stage, the optimum conditions of the nanocomposite have been verified by using different ratio nanocomposites as well as optimum concentration has been tested by using different concentrations of optimum ratio CLNC. Then the optimum concentration of CLNC were added in the incubating mixture to evaluate the corrosion inhibition imparted by the nanocomposite at different time intervals. The abiotic conditions were made by incubating coupons in same manner without any SRB and nanocomposite to differentiate the SRB induced corrosion from chemical corrosion. All incubation experiments were performed in anaerobic chamber to maintain the anaerobic condition throughout the experiments. […]
EIS analysis was carried out using Gamry potentiostat (Gamry 600+, FA, USA) using the SRB treated carbon steel coupon as a working electrode, calomel and graphite disk electrodes as reference and counter electrodes, respectively. […] The EIS measurements were recorded at an open circuit potential with a 10 mV sinusoidal signal over the frequency range of 0.01-10^5 Hz Before the EIS measurements, steady state conditions were achieved by keeping the whole setup at open circuit potential (OCP) for 30 min. Potentiodynamic polarization curves were measured by scanning the potential from −250 mV to +250 mV vs OCP at a sweep rate of 0.167 mV/s. The experimental results were analyzed by Gamry Echem Analyst software version 7.05.
The mixed SRB culture was enriched from sludge biomass obtained from an offshore oil filed in Qatar. […] The optimum concentration of CS@LS was evaluated in the range of 0-1000 μg·mL^−1 CS@LS and EIS analysis was performed after 10 days of incubation. […]

SMILES: CCN(CC)c1ccc(C=O)cc1 [DEAB, Diethylaminobenzaldehyde]
- LC50 (zebrafish embryos [1]): 2500 nM
- LOEC (zebrafish embryos [2]; 96-hpf, =>20% mortality): 1.0 µM
- cumulative mortality (zebrafish embryos [2]; DEAB 1.0 μM, 96-hpf): 60%
- cumulative mortality (zebrafish embryos [2]; DEAB at NOEC (0.1), 96-hpf): 10%
- LC50 (zebrafish embryos [2]; sigmoidal curve, 95% confidence limit): 940 nM

SMILES: O=CCCCC=O [GA, glutaraldehyde]
- bacterial growth [3]: complete bacterial growth can be inhibited
- Rct ([3]; 15 days): 158.8 Ω·cm^2
- Rf ([3]; 15 days): 136.4 Ω·cm^2
